Measured values from patent US20170037111A1, “Novel peptides and combination of peptides for use in immunotherapy against ovarian cancer and other cancers” (immatics biotechnologies GmbH, priority 2015, published 2017).

Columns and labels:
ovarian cancer = settings: clinical studies, phase as stated; cited from earlier work
HLA-A*02:01 = HLA-A*02:01 (Homo sapiens, UniProt P04439, D140Y/D185E/D98H/E176V/E277Q/G131W/G231S/I119V/I121R/I166T/I218V/L300P/L318F/N151K/N90K/P208A/P217A/Q86G/Q94H/R138H/R169H/T345S); experiment: MHC binding assay (UV-ligand exchange, β2m ELISA, peptide exchange yield); settings: MHC class I binding score; binding to HLA-A*02:01 ranged by peptide exchange yield (UV-ligand exchange, β2m ELISA)
Summary of the method: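 Peptide–HLA-A*02:01 complexes were formed by UV-mediated exchange of a UV-cleavable ligand for the test peptide. Exchange yield was measured by capturing complexes on streptavidin, detecting with HRP anti-β2m antibody (1 h, 37°C) and reading TMB absorbance at 450 nm.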

CD8+ T cells = experiment: In vitro T-cell priming (immunogenicity) with aAPCs loaded with peptide/MHC and anti-CD28, pMHC multimer readout; type: cell-based, human; settings: in vitro immunogenicity; HLA-A*02 restricted peptides; positive wells among evaluable
From the text: In order to obtain information regarding the immunogenicity of the TUMAPs of the present invention, the inventors performed investigations using an in vitro T-cell priming assay based on repeated stimulations of CD8+ T cells with artificial antigen presenting cells (aAPCs) loaded with peptide/MHC complexes and anti-CD28 antibody.
In order to perform in vitro stimulations by artificial antigen presenting cells loaded with peptide-MHC complex (pMHC) and anti-CD28 antibody, the inventors first isolated CD8+ T cells from fresh HLA-A*02 leukapheresis products via positive selection using CD8 microbeads (Miltenyi Biotec, Bergisch-Gladbach, Germany) of healthy donors obtained from the University clinics Mannheim, Germany, after informed consent.
PBMCs and isolated CD8+ lymphocytes were incubated in T-cell medium (TCM) until use consisting of RPMI-Glutamax (Invitrogen, Karlsruhe, Germany) supplemented with 10% heat inactivated human AB serum (PAN-Biotech, Aidenbach, Germany), 100 U/ml Penicillin/100 μg/ml Streptomycin (Cambrex, Cologne, Germany), 1 mM sodium pyruvate (CC Pro, Oberdorla, Germany), 20 μg/ml Gentamycin (Cambrex). 2.5 ng/ml IL-7 (PromoCell, Heidelberg, Germany) and 10 U/ml IL-2 (Novartis Pharma, Nürnberg, Germany) were also added to the TCM at this step.
Generation of pMHC/anti-CD28 coated beads, T-cell stimulations and readout was performed in a highly defined in vitro system using four different pMHC molecules per stimulation condition and 8 different pMHC molecules per readout condition.
The purified co-stimulatory mouse IgG2a anti human CD28 Ab 9.3 (Jung et al., 1987) was chemically biotinylated using Sulfo-N-hydroxysuccinimidobiotin as recommended by the manufacturer (Perbio, Bonn, Germany). Beads used were 5.6 μm diameter streptavidin coated polystyrene particles (Bangs Laboratories, Illinois, USA).
pMHC used for positive and negative control stimulations were A*0201/MLA-001 (peptide […] (SEQ ID NO. 664) from modified Melan-A/MART-1) and A*0201/DDX5-001 ([…] from DDX5, SEQ ID NO. 665), respectively.
800.000 beads/200 μl were coated in 96-well plates in the presence of 4×12.5 ng different biotin-pMHC, washed and 600 ng biotin anti-CD28 were added subsequently in a volume of 200 μl. Stimulations were initiated in 96-well plates by co-incubating 1×10^6 CD8+ T cells with 2×10^5 washed coated beads in 200 μl TCM supplemented with 5 ng/ml IL-12 (PromoCell) for 3 days at 37° C. Half of the medium was then exchanged by fresh TCM supplemented with 80 U/ml IL-2 and incubating was continued for 4 days at 37° C. This stimulation cycle was performed for a total of three times. For the pMHC multimer readout using 8 different pMHC molecules per condition, a two-dimensional combinatorial coding approach was used as previously described (Andersen et al., 2012) with minor modifications encompassing coupling to 5 different fluorochromes. Finally, multimeric analyses were performed by staining the cells with Live/dead near IR dye (Invitrogen, Karlsruhe, Germany), CD8-FITC antibody clone SK1 (BD, Heidelberg, Germany) and fluorescent pMHC multimers. For analysis, a BD LSRII SORP cytometer equipped with appropriate lasers and filters was used. Peptide specific cells were calculated as percentage of total CD8+ cells. Evaluation of multimeric analysis was done using the FlowJo software (Tree Star, Oregon, USA). In vitro priming of specific multimer+CD8+ lymphocytes was detected by comparing to negative control stimulations.
Exemplary flow cytometry results after TUMAP-specific multimer staining for two peptides of the invention are shown in FIG. 3 together with corresponding negative controls.

Peptide exchange (HLA-A*02:01) | Substance | clinical effect in ovarian cancer patients (ovarian cancer) | Wells positive [%] (CD8+ T cells)
 | bevacizumab: anti-VEGF antibody | appears to be advantageous | 
 | MORAb-003: anti-folate receptor alpha antibody | limited clinical benefit | 
 | catumaxomab | promising results | 
 | Ipilimumab: anti-CTLA4 antibody, which enhances T cell activity | significant anti-tumor effects | 
 | oregovomab | promising results | 
″+++″ (≧50% = +++) | 518 (KLNAEVACV; listed as Homo sapiens) [compound 518] |  | ″++″ (20%-49% = ++)
″++++″ (≧75% = ++++) | 143 (LLLDITPEI; listed as Homo sapiens) [compound 143] |  | ″+″ (<20% = +)
″++++″ (≧75% = ++++) | 108 (ALFPGVALLLA; listed as Homo sapiens) [compound 108] |  | ″++″ (20%-49% = ++)
″+++″ (≧50% = +++) | 118 (KLIDNNINV; listed as Homo sapiens) [compound 118] |  | ″+″ (<20% = +)
